Source: ChEMBL document CHEMBL5579851, “Synthesis and antifungal evaluation of novel triazole derivatives bearing a pyrazole-methoxyl moiety” (Eur J Med Chem, 2024)
Converted amounts (≈) assume the structure as drawn.

system: Candida albicans; assay: Antifungal activity against Candida albicans SC5314 assessed as inhibition of fungal growth incubated for 48 hrs by CLSI based broth microdilution assay; format: functional; conditions: not given

Structure (SMILES)	MIC [mg/L]
C[C@@H](OCc1ccn(Cc2ccc(C#N)cc2)n1)[C@](O)(Cn1cncn1)c1ccc(F)cc1F	≤ 0.125
C[C@@H](OCc1ccn(Cc2ccc(F)cc2Cl)n1)[C@](O)(Cn1cncn1)c1ccc(F)cc1F	≤ 0.125
C[C@@H](OCc1ccn(Cc2c(Cl)cccc2Cl)n1)[C@](O)(Cn1cncn1)c1ccc(F)cc1F	0.25 (≈ 0.492 µM)
C[C@@H](OCc1ccn(Cc2ccccc2Cl)n1)[C@](O)(Cn1cncn1)c1ccc(F)cc1F	≤ 0.125
C[C@@H](OCc1ccn(Cc2ccc([N+](=O)[O-])cc2)n1)[C@](O)(Cn1cncn1)c1ccc(F)cc1F	≤ 0.125
Cc1cccc(Cn2ccc(CO[C@H](C)[C@](O)(Cn3cncn3)c3ccc(F)cc3F)n2)c1	≤ 0.125
C[C@@H](OCc1ccn(Cc2c(Cl)cc(Cl)cc2Cl)n1)[C@](O)(Cn1cncn1)c1ccc(F)cc1F	0.25 (≈ 0.461 µM)

system: Candida albicans; assay: Antifungal activity against Candida albicans 10231 assessed as inhibition of fungal growth incubated for 48 hrs by CLSI based broth microdilution assay; format: functional; conditions: not given

Structure (SMILES)	MIC [mg/L]
C[C@@H](OCc1ccn(Cc2ccc(C#N)cc2)n1)[C@](O)(Cn1cncn1)c1ccc(F)cc1F	0.25 (≈ 0.538 µM)
C[C@@H](OCc1ccn(Cc2ccc(F)cc2Cl)n1)[C@](O)(Cn1cncn1)c1ccc(F)cc1F	0.25 (≈ 0.508 µM)
C[C@@H](OCc1ccn(Cc2c(Cl)cccc2Cl)n1)[C@](O)(Cn1cncn1)c1ccc(F)cc1F	0.5 (≈ 0.984 µM)
C[C@@H](OCc1ccn(Cc2ccccc2Cl)n1)[C@](O)(Cn1cncn1)c1ccc(F)cc1F	0.25 (≈ 0.528 µM)
C[C@@H](OCc1ccn(Cc2ccc([N+](=O)[O-])cc2)n1)[C@](O)(Cn1cncn1)c1ccc(F)cc1F	≤ 0.125
Cc1cccc(Cn2ccc(CO[C@H](C)[C@](O)(Cn3cncn3)c3ccc(F)cc3F)n2)c1	0.25 (≈ 0.551 µM)
C[C@@H](OCc1ccn(Cc2c(Cl)cc(Cl)cc2Cl)n1)[C@](O)(Cn1cncn1)c1ccc(F)cc1F	0.5 (≈ 0.921 µM)

system: Cryptococcus neoformans; assay: Antifungal activity against Cryptococcus neoformans 32609 assessed as inhibition of fungal growth incubated for 72 hrs by CLSI based broth microdilution assay; format: functional; conditions: not given

Structure (SMILES)	MIC [mg/L]
C[C@@H](OCc1ccn(Cc2ccc(C#N)cc2)n1)[C@](O)(Cn1cncn1)c1ccc(F)cc1F	1 (≈ 2.15 µM)
C[C@@H](OCc1ccn(Cc2ccc(F)cc2Cl)n1)[C@](O)(Cn1cncn1)c1ccc(F)cc1F	0.25 (≈ 0.508 µM)
C[C@@H](OCc1ccn(Cc2c(Cl)cccc2Cl)n1)[C@](O)(Cn1cncn1)c1ccc(F)cc1F	0.25 (≈ 0.492 µM)
C[C@@H](OCc1ccn(Cc2ccccc2Cl)n1)[C@](O)(Cn1cncn1)c1ccc(F)cc1F	0.25 (≈ 0.528 µM)
C[C@@H](OCc1ccn(Cc2ccc([N+](=O)[O-])cc2)n1)[C@](O)(Cn1cncn1)c1ccc(F)cc1F	0.5 (≈ 1.03 µM)
Cc1cccc(Cn2ccc(CO[C@H](C)[C@](O)(Cn3cncn3)c3ccc(F)cc3F)n2)c1	0.5 (≈ 1.1 µM)
C[C@@H](OCc1ccn(Cc2c(Cl)cc(Cl)cc2Cl)n1)[C@](O)(Cn1cncn1)c1ccc(F)cc1F	≤ 0.125

system: Nakaseomyces glabratus; assay: Antifungal activity against Candida glabrata 537 assessed as inhibition of fungal growth incubated for 48 hrs by CLSI based broth microdilution assay; format: functional; conditions: not given

Structure (SMILES)	MIC [mg/L]
C[C@@H](OCc1ccn(Cc2ccc(C#N)cc2)n1)[C@](O)(Cn1cncn1)c1ccc(F)cc1F	1 (≈ 2.15 µM)
C[C@@H](OCc1ccn(Cc2ccc(F)cc2Cl)n1)[C@](O)(Cn1cncn1)c1ccc(F)cc1F	1 (≈ 2.03 µM)
C[C@@H](OCc1ccn(Cc2c(Cl)cccc2Cl)n1)[C@](O)(Cn1cncn1)c1ccc(F)cc1F	0.5 (≈ 0.984 µM)
C[C@@H](OCc1ccn(Cc2ccccc2Cl)n1)[C@](O)(Cn1cncn1)c1ccc(F)cc1F	0.5 (≈ 1.06 µM)
C[C@@H](OCc1ccn(Cc2ccc([N+](=O)[O-])cc2)n1)[C@](O)(Cn1cncn1)c1ccc(F)cc1F	≤ 0.125
Cc1cccc(Cn2ccc(CO[C@H](C)[C@](O)(Cn3cncn3)c3ccc(F)cc3F)n2)c1	4 (≈ 8.82 µM)
C[C@@H](OCc1ccn(Cc2c(Cl)cc(Cl)cc2Cl)n1)[C@](O)(Cn1cncn1)c1ccc(F)cc1F	1 (≈ 1.84 µM)

system: Candida parapsilosis; assay: Antifungal activity against Candida parapsilosis 22019 assessed as inhibition of fungal growth incubated for 48 hrs by CLSI based broth microdilution assay; format: functional; conditions: Lodderomyces parapsilosis

Structure (SMILES)	MIC [mg/L]
C[C@@H](OCc1ccn(Cc2ccc(C#N)cc2)n1)[C@](O)(Cn1cncn1)c1ccc(F)cc1F	0.5 (≈ 1.08 µM)
C[C@@H](OCc1ccn(Cc2ccc(F)cc2Cl)n1)[C@](O)(Cn1cncn1)c1ccc(F)cc1F	1 (≈ 2.03 µM)
C[C@@H](OCc1ccn(Cc2c(Cl)cccc2Cl)n1)[C@](O)(Cn1cncn1)c1ccc(F)cc1F	1 (≈ 1.97 µM)
C[C@@H](OCc1ccn(Cc2ccccc2Cl)n1)[C@](O)(Cn1cncn1)c1ccc(F)cc1F	0.5 (≈ 1.06 µM)
C[C@@H](OCc1ccn(Cc2ccc([N+](=O)[O-])cc2)n1)[C@](O)(Cn1cncn1)c1ccc(F)cc1F	0.25 (≈ 0.516 µM)
Cc1cccc(Cn2ccc(CO[C@H](C)[C@](O)(Cn3cncn3)c3ccc(F)cc3F)n2)c1	0.5 (≈ 1.1 µM)
C[C@@H](OCc1ccn(Cc2c(Cl)cc(Cl)cc2Cl)n1)[C@](O)(Cn1cncn1)c1ccc(F)cc1F	2 (≈ 3.68 µM)

system: Pichia kudriavzevii; assay: Antifungal activity against Candida krusei 4996 assessed as inhibition of fungal growth incubated for 48 hrs by CLSI based broth microdilution assay; format: functional; conditions: not given

Structure (SMILES)	MIC [mg/L]
C[C@@H](OCc1ccn(Cc2ccc(C#N)cc2)n1)[C@](O)(Cn1cncn1)c1ccc(F)cc1F	8 (≈ 17.2 µM)
C[C@@H](OCc1ccn(Cc2ccc(F)cc2Cl)n1)[C@](O)(Cn1cncn1)c1ccc(F)cc1F	4 (≈ 8.13 µM)
C[C@@H](OCc1ccn(Cc2c(Cl)cccc2Cl)n1)[C@](O)(Cn1cncn1)c1ccc(F)cc1F	8 (≈ 15.7 µM)
C[C@@H](OCc1ccn(Cc2ccccc2Cl)n1)[C@](O)(Cn1cncn1)c1ccc(F)cc1F	8 (≈ 16.9 µM)
C[C@@H](OCc1ccn(Cc2ccc([N+](=O)[O-])cc2)n1)[C@](O)(Cn1cncn1)c1ccc(F)cc1F	4 (≈ 8.26 µM)
Cc1cccc(Cn2ccc(CO[C@H](C)[C@](O)(Cn3cncn3)c3ccc(F)cc3F)n2)c1	8 (≈ 17.6 µM)
C[C@@H](OCc1ccn(Cc2c(Cl)cc(Cl)cc2Cl)n1)[C@](O)(Cn1cncn1)c1ccc(F)cc1F	8 (≈ 14.7 µM)

system: Candida tropicalis; assay: Antifungal activity against Candida tropicalis 8915 assessed as inhibition of fungal growth incubated for 48 hrs by CLSI based broth microdilution assay; format: functional; conditions: not given

Structure (SMILES)	MIC [mg/L]
C[C@@H](OCc1ccn(Cc2ccc(C#N)cc2)n1)[C@](O)(Cn1cncn1)c1ccc(F)cc1F	0.5 (≈ 1.08 µM)
C[C@@H](OCc1ccn(Cc2ccc(F)cc2Cl)n1)[C@](O)(Cn1cncn1)c1ccc(F)cc1F	8 (≈ 16.3 µM)
C[C@@H](OCc1ccn(Cc2c(Cl)cccc2Cl)n1)[C@](O)(Cn1cncn1)c1ccc(F)cc1F	32 (≈ 62.9 µM)
C[C@@H](OCc1ccn(Cc2ccccc2Cl)n1)[C@](O)(Cn1cncn1)c1ccc(F)cc1F	32 (≈ 67.5 µM)
C[C@@H](OCc1ccn(Cc2ccc([N+](=O)[O-])cc2)n1)[C@](O)(Cn1cncn1)c1ccc(F)cc1F	0.5 (≈ 1.03 µM)
Cc1cccc(Cn2ccc(CO[C@H](C)[C@](O)(Cn3cncn3)c3ccc(F)cc3F)n2)c1	> 64
C[C@@H](OCc1ccn(Cc2c(Cl)cc(Cl)cc2Cl)n1)[C@](O)(Cn1cncn1)c1ccc(F)cc1F	64 (≈ 118 µM)
